Assay results published in US10160986B2, “Chemoenzymatic synthesis of heparin and heparan sulfate analogs” (The Regents of the University of California, priority 2011, dated 2018).
Read-outs that look alike come from different tables or passages of the source.

Key:
PmHS2 [1] = assay: Donor substrate specificity of PmHS2 by HPLC (Example 1); assay type: biochemical, Pasteurella multocida; conditions: acceptor GlcAα2AA 1 mM, UDP-sugar 1 mM, MnCl2 10 mM, pH 6.5, 37° C.
Method: pH profile by HPLC. Typical enzymatic assays were performed in a 10 μl reaction mixture containing a buffer (100 mM) with a pH in the range of 4.0-10.0, UDP-GlcNAc (1 mM), GlcAβ2AA (1 mM), MnCl2 (10 mM) and KfiA (9.0 μg) or PmHS2 (0.25 μg). Buffers used were: Na2HPO4/citric acid, pH 4.0; MES, pH 5.0-6.5; TrisHCl, pH 7.0-9.0; and CAPS, pH 10.0. Reactions were allowed to proceed for 30 min at 37° C. and were quenched by adding ice-cold 10% (v/v) acetonitrile to make 100-fold dilutions. The samples were then kept on ice until an aliquot of 8 μl was injected and analyzed by a Shimadzu LC-2010A system equipped with a membrane on-line degasser, a temperature control unit and a fluorescence detector. A reverse phase Premier C18 column (250 9 4.6 mm I.D., 5 μm particle size, Shimadzu) protected with a C18 guard column cartridge was used. The mobile phase was 25% (v/v) acetonitrile. The fluorescent compounds GlcAβ2AA and GlcNAcα1-4GlcAβ2AA were detected by excitation at 315 nm and emission at 400 nm.
Substrate specificity of KfiA and PmHS2. All reactions were carried out in duplicate at 37° C. in MES (100 mM, pH 6.5) containing an UDP-GlcNAc or its derivatives (1 mM), […] (1 mM), MnCl2 (10 mM) and KfiA ([…] PmHS2 (2.5×10^−2 μg μl^−1). At 30 min, 4 h or 16 h, aliquots of reaction mixture were withdrawn and were quenched by adding ice-cold 10% (v/v) acetonitrile to make 100-fold dilutions. The assays were analyzed by HPLC.

PmHS2 [2] = assay: Small-scale PmHS2 donor substrate test by TLC; assay type: biochemical, Pasteurella multocida; conditions: GlcAβ2AAMe 10 mM, donor 15 mM, MgCl2 10 mM, PmHS2 0.5 mg/mL, pH 7.5, 37° C., 12 hr
Method: Prior to applying the one-pot three-enzyme system shown in FIG. 16 to the preparative-scale synthesis of the disaccharides, UDP-GlcNAc and derivatives F17-1-F17-12 were tested as donor substrates for PmHS2 in small-scale reaction containing Tris-HCl buffer (100 mM, pH 7.5), GlcAβ2AAMe (10 mM), UDP-GlcNAc or a derivative (15 mM), MgCl2 (10 mM), and PmHS2 (0.5 mg/mL). The reactions were carried out at 37° C. for 12 hr and analyzed by thin layer chromatography (TLC).

[3] = tested on: T1, MBP-KfiA-His6 (Escherichia coli); assay: GlcNAcT donor substrate specificity of MBP-KfiA-His6 (Example 12); assay type: biochemical, E. coli; conditions: acceptor GlcAβ2AA 1 mM, UDP-sugar 1 mM, MnCl2 10 mM, KfiA 2.8 μg μl^−1, 24 h, 37° C.
T1 construct: made in house; host or cells: E. coli BL21(DE3) co-expressing chaperone plasmid pGro7
Method: (§1) PmHS2, KfiA, and related fusion proteins were expressed, purified, and characterized as described in Example 1. Reactions with UDP-sugars were carried out in duplicate at 37° C. in MES (100 mM, pH 6.5) containing UDP-GlcNAc or one of its derivatives (1 mM), GlcAβ2AA (1 mM), MnCl2 (10 mM) and KfiA (2.8 μg μl^−1) or PmHS2 (1.1 μg μl^−1) for 24 h. The reaction mixtures were stopped by adding ice-cold 10% (v/v) acetonitrile to make 100-fold dilutions and the mixtures were analyzed by HPLC as described for the pH profile.
(§2) Substrate specificity of the GlcNAcT activities of MBP-KfiA-his6 and his6-PmHS2. […] The reactions were easily analyzed by high performance liquid chromatography (HPLC) equipped with a fluorescence detector using an excitation wavelength of 315 nm and an emission wavelength of 400 nm to determine the ratio of the fluorescent disaccharide product formed and the fluorescent GlcAβ2AA acceptor.

His6-PmHS2 = assay: GlcNAcT donor substrate specificity of His6-PmHS2 (Example 12); assay type: biochemical, Pasteurella multocida; conditions: acceptor GlcAβ2AA 1 mM, UDP-sugar 1 mM, MnCl2 10 mM, PmHS2 1.1 μg μl^−1, 24 h, 37° C.
Method: as §1, §2

NahK_ATCC15697 = NahK_ATCC15697 (Bifidobacterium longum, UniProt B7GN78); assay: Substrate specificity CE assay, NahK_ATCC15697; assay type: biochemical, Bifidobacterium infantis
Method: (§3) Substrates specificity assays. GlcNAc, GalNAc, and their derivatives (1 mM) were used as substrates in the presence of ATP (1 mM) and MgCl2 (5 mM) in a Tris-HCl buffer (pH 8.0, 200 mM) to analyze the substrate specificity of NahKs. Two concentrations (0.75 μM or 15 μM) of each NahK were used and the reactions were allowed to proceed for 10 min (for 0.75 μM NahK) or 30 min (for 15 μM NahK) at 37° C. […] All other conditions were the same as for GlcNAc, GalNAc, and their derivatives.
(§4) Capillary electrophoresis (CE) assays. Based on the detection of ADP and ATP in the reaction mixture by a UV detector, a capillary electrophoresis-based method was developed to directly measure the formation of ADP and N-acetylhexosamine-1-phosphate from ATP and N-acetylhexosamine for characterizing the activities of NahKs.

SpGalK = biological target: T2, SpGalK (Streptococcus pneumoniae serotype 4, UniProt Q97NZ6); assay: Kinase reaction monitored by CE (ATP to ADP), SpGalK; assay type: biochemical, Streptococcus pneumoniae TIGR4; conditions: monosaccharide 15 mM, ATP 18 mM, 37° C.
T2 construct: made in house
Method: (§5) Capillary electrophoresis (CE) and thin-layer chromatograph (TLC) assays for kinase reactions. […] These conditions were similar to those used for preparative-scale synthesis. After 1 hr, 4 hr, and 24 hr, an aliquot of 8 μL was withdrawn from each reaction mixture, boiled in a water bath for 5 min and stored at −20° C. until being analyzed by capillary electrophoresis (CE) and TLC. For TLC analysis, 0.5 μL of each sample was directly spotted on TLC plates, developed using suitable developing solvents, and stained with anisaldehyde sugar stain. For CE analysis, 1.5 μL of each sample was diluted into 30 μL and subjected to CE analysis as described above for pH profile studies.

NahK_ATCC55813 = NahK_ATCC55813 (Bifidobacterium longum subsp. longum, UniProt E8MF12, D7V/R348H); assay type: biochemical; design: made in house; host or cells: E. coli BL21(DE3)
Method: as §3, §4

EcGalK = biological target: T3, EcGalK (Escherichia coli, UniProt P0A6T3); assay: Kinase reaction monitored by CE (ATP to ADP), EcGalK; assay type: biochemical; conditions: monosaccharide 15 mM, ATP 18 mM, 37° C.
T3 construct: made in house
Method: as §5

NahK = assay: Kinase reaction monitored by CE (ATP to ADP), NahK; assay type: biochemical, Bifidobacterium infantis; conditions: monosaccharide 15 mM, ATP 18 mM, 37° C.
Method: Capillary electrophoresis (CE) and thin-layer chromatograph (TLC) assays for kinase reactions. Kinase reactions were carried out at 37° C. in a total volume of 30 μL in Tris-HCl buffer (100 mM, pH 8.0) containing monosaccharide (15 mM), ATP (18 mM, 1.2 eq.), MgCl2 (10 mM), and a kinase (6 μg). These conditions were similar to those used for preparative-scale synthesis. After 1 hr, 4 hr, and 24 hr, an aliquot of 8 μL was withdrawn from each reaction mixture, boiled in a water bath for 5 min and stored at −20° C. until being analyzed by capillary electrophoresis (CE) and TLC. For TLC analysis, 0.5 μL of each sample was directly spotted on TLC plates, developed using suitable developing solvents, and stained with anisaldehyde sugar stain. For CE analysis, 1.5 μL of each sample was diluted into 30 μL and subjected to CE analysis as described above for pH profile studies.
General methods for compound purification and characterization. Chemicals were purchased and used without further purification. ^1H NMR and ^13C NMR spectra were recorded on a Varian Mercury 600 NMR spectrometer. High resolution electrospray ionization (ESI) mass spectra were obtained in negative mode using Thermo Electron LTQ-Orbitrap mass spectrometer. Silica gel 60 Å (Sorbent Technologies) was used for flash column chromatography. Thin-layer chromatography (TLC) was performed on silica gel plates 60 GF254 (Sorbent Technologies) using anisaldehyde sugar stain for detection. Gel filtration chromatography was performed with a column (100 cm×2.5 cm) packed with BioGel P-2 Fine resins (Bio-Rad). GlcN3 (T6-9) (Lau K, Thon, V, Yu H, Ding L, Chen Y, Muthana M M, Wong D, Huang R, and Chen X. Chem. Commun. 2010, 46, 6066-6068), ManF (T6-11) (Burkart M D, Zhang Z, Hung S-C, and Wong C-H. J. Am. Chem. Soc. 1997, 119, 11743-11746; Cao H, Li Y, Lau K, Muthana S, Yu H, Cheng J, Chokhawala H A, Sugiarto G, Zhang L, and Chen X. Org. Biomol. Chem. 2009, 7, 5137-5145), GalN3 (T6-4) and ManN3 (T6-14) (Yu H, Yu H, Karpel R, cand Chen X. Bioorg. Med. Chem. 2004, 12, 6427-6435) were previously synthesized using reported methods. NahK_ATCC15697, EcGalK, SpGalK, and PmPpA were overexpressed as described previously.

AtGlcAK = biological target: T4, AtGlcAK (Arabidopsis thaliana, UniProt Q93ZC9, I297M); assay: AtGlcAK substrate specificity CE assay; assay type: biochemical; conditions: High enzyme Conc. (2.1 μg in 20 μL, 60 min, 37° C.)
T4 construct: made in house; host or cells: E. coli BL21 (DE3)
Method: Substrate specificity assays. […] The reactions were quenched and assayed with the same method as those for pH profile. All reactions were performed in duplicates.

[4] = tested on: CC(=O)N[C@H]1C(O)O[C@H](CO)[C@@H](O)[C@@H]1O; assay: purified protein, by the assay type; conditions: other: substrates ATP and GlcNAc, one varied, other fixed at 1 mM, 37° C., 10 min, pH 7.5
Method: (§6) Kinetics by CE assays. Reactions were carried out in duplicate at 37° C. for 10 min in a total volume of 20 μL in Tris-HCl buffer (200 mM, pH 7.5) containing MgCl2 (1 mM), ATP, GlcNAc or GalNAc, and NahK (0.25 μM when GlcNAc and ATP were used as substrates, 0.5 μM when GalNAc and ATP were used as substrates). Apparent kinetic parameters were obtained by varying the ATP concentration from 0.1-5.0 mM (0.1 mM, 0.2 mM, 0.4 mM, 1 mM, 2 mM, and 5 mM) at a fixed concentration of GlcNAc or GalNAc (1 mM), or varying the concentration of GlcNAc or GalNAc (0.1 mM, 0.2 mM, 0.4 mM, 1 mM, 2 mM, and 5 mM) at a fixed concentration of ATP (1 mM) and fitting the data to the Michaelis-Menten equation using Grafit 5.0.

[5] = tested on: CC(=O)N[C@H]1C(O)O[C@H](CO)[C@H](O)[C@@H]1O; assay: purified protein, by the assay type; conditions: other: substrates ATP and GalNAc, one varied, other fixed at 1 mM, 37° C., 10 min, pH 7.5
Method: as §6

[6] = tested on: Nc1ncnc2c1ncn2[C@@H]1O[C@H](COP(=O)(O)OP(=O)(O)OP(=O)(O)O)[C@@H](O)[C@H]1O; assay: purified protein, by the assay type; conditions: one varied, other fixed at 1 mM, 37° C., 10 min, pH 7.5
Method: as §6

[7] = 0.75 μM enzyme, 10 min at 37° C., substrate 1 mM, ATP 1 mM
[8] = Glc, Gal, Man, ManNAc and derivatives, enzyme 15, 37° C. for 30 min (Table 3), listed as drawing 47
[9] = other: substrates ATP and GalNAc
[10] = other: substrates ATP and GlcNAc

CC(=O)N[C@H]1[C@@H](OP(=O)(O)OP(=O)(O)OC[C@H]2O[C@@H](n3ccc(=O)[nH]c3=O)[C@H](O)[C@@H]2O)O[C@H](CN=[N+]=[N-])[C@@H](O)[C@@H]1O [Compound F17-8, Uridine 5′-diphospho-2-acetamido-6-azido-2,6-dideoxy-α-D-glucopyranoside]
donor substrate for PmHS2 (PmHS2 [1]): is a substrate for PmHS2
donor substrate for PmHS2 (PmHS2 [2]): tolerable donor substrates
donor substrate for MBP-KfiA-His6 [3]: can be used by MBP-KfiA-His6
donor substrate for the α1-4GlcNAcT activity of His6-PmHS2 (His6-PmHS2): suitable donor substrates for His6-PmHS2

CC(=O)NC1C(O)OC(CO)[C@H](O)[C@@H]1O (some centres unmarked) [GalNAc, N-acetylgalactosamine]
Percentage Conversion (NahK_ATCC15697; [7]): 12.5 ± 0.1%
ATP Conversion (SpGalK; 1 hr): 11.8%
ATP Conversion (SpGalK; 4 hr): 24.7%
ATP Conversion (SpGalK; 24 hr): 69.5%
Percentage Conversion (NahK_ATCC55813; [7]): 19.9 ± 0.1%

OCC1OC(O)C(O)[C@@H](O)[C@@H]1O (some centres unmarked) [Glc, glucose]
Percentage Conversion (NahK_ATCC15697; [8]): 9.1 ± 0.1%
ATP Conversion (SpGalK; 1 hr): 6.9%
ATP Conversion (SpGalK; 4 hr): 13.8%
ATP Conversion (SpGalK; 24 hr): 75.5%
ATP Conversion (EcGalK; 1 hr): 8.2%
ATP Conversion (EcGalK; 4 hr): 13.0%
ATP Conversion (EcGalK; 24 hr): 66.4%
ATP Conversion (NahK; 4 hr): 18.6%
ATP Conversion (NahK; 24 hr): 82.2%
Percentage conversion of ATP (AtGlcAK): <5%
Percentage Conversion (NahK_ATCC55813; [8]): 4.7 ± 0.1%

OCC1OC(O)CC(O)[C@H]1O (some centres unmarked) [T6-2 2-deoxyGal, 2-deoxyGal]
ATP Conversion (SpGalK; 1 hr): 80.3%
ATP Conversion (SpGalK; 4 hr): 89.5%
ATP Conversion (EcGalK; 1 hr): 78.5%
ATP Conversion (EcGalK; 4 hr): 87.6%

N[C@H]1C(O)O[C@H](CO)[C@H](O)[C@@H]1O (some centres unmarked) [T6-3 GalNH2, galactosamine]
ATP Conversion (EcGalK; 1 hr): 90.2%

O=C[C@H](O)[C@@H](O)[C@H](O)CO [Xyl, xylose]
Percentage conversion of ATP (AtGlcAK): <5%

NahK_ATCC15697 (Bifidobacterium longum subsp. infantis ATCC 15697 = JCM 1222 = DSM 20088)
Km [4]: 60 ± 10 µM
kcat [4]: 0.95 ± 0.01 s⁻¹
kcat/Km [4]: 15800 M⁻¹ s⁻¹
Km [5]: 90 ± 50 µM
kcat [5]: 0.46 ± 0.07 s⁻¹
kcat/Km [5]: 5100 M⁻¹ s⁻¹
Km [6, 9]: 80 ± 30 µM
kcat [6, 9]: 0.38 ± 0.02 s⁻¹
kcat/Km [6, 9]: 4800 M⁻¹ s⁻¹
Km [6, 10]: 100 ± 30 µM
kcat [6, 10]: 1.1 ± 0.1 s⁻¹
kcat/Km [6, 10]: 11000 M⁻¹ s⁻¹

NahK_ATCC55813 (Bifidobacterium longum subsp. longum JCM 1217; D7V/R348H)
Km [4]: 60 ± 10 µM
kcat [4]: 1.1 ± 0.1 s⁻¹
kcat/Km [4]: 18300 M⁻¹ s⁻¹
Km [5]: 80 ± 30 µM
kcat [5]: 0.57 ± 0.04 s⁻¹
kcat/Km [5]: 7100 M⁻¹ s⁻¹
